Laboratory results taken from ChEMBL document CHEMBL1201862, “PubChem BioAssay data set” (2004).
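Results reflect a 48-hour exposure of cells in 96-well plates to compound at five concentrations. GI50 is the concentration that inhibits growth by half.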 Activity calls are given as the source filed them. Rule as the data show it: active = GI50 up to about 1.1 µM and inactive = higher. Non-standard residues stand in square brackets, D forms with d. Residues, ends and D or L forms follow the SMILES beside them. ξ: configuration not given here. *: point of attachment. NMeF = CN[C@@H](Cc1ccccc1)C(=O)O; ξNMeV = CNC(C(=O)O)C(C)C; Boc = CC(C)(C)OC(=O)*; OBn = c1ccc(CO*)cc1

Legend:
Test in all cases: DTP human tumour cell line panel, 48 h
UACC-257 = test system: UACC-257
SF-539 = test system: SF-539
RXF 393 = test system: RXF 393
786-0 = test system: 786-0
KM12 = test system: KM12
NCI-H522 = test system: NCI-H522
RPMI-8226 = test system: RPMI-8226
UO-31 = test system: UO-31
SF-295 = test system: SF-295
NCI-H226 = test system: NCI-H226
CCRF-CEM = test system: CCRF-CEM
HT-29 = test system: HT-29
SK-OV-3 = test system: SK-OV-3
OVCAR-3 = test system: OVCAR-3
U-251 = test system: U-251
M14 = test system: M14
SNB-19 = test system: SNB-19
HCT-116 = test system: HCT-116
HCC 2998 = test system: HCC 2998
SNB-75 = test system: SNB-75

Measured: GI50

CCNC(=O)Cc1nc2c(O)ncnc2n1C1OC(CO)C(O)C1O (stereo not given)
inactive: UACC-257 > 100 µM | SF-539 > 100 µM | RXF 393 > 100 µM | 786-0 > 100 µM | KM12 > 100 µM | NCI-H522 > 100 µM | RPMI-8226 > 100 µM | UO-31 > 100 µM | SF-295 > 100 µM | NCI-H226 > 100 µM | CCRF-CEM > 100 µM | HT-29 > 100 µM | SK-OV-3 > 100 µM | OVCAR-3 > 100 µM | U-251 > 100 µM | M14 > 100 µM | SNB-19 > 100 µM | HCT-116 > 100 µM | HCC 2998 > 100 µM | SNB-75 > 100 µM

Nc1c2ccccc2nc2ccc(C(=O)Nc3ccc(S(N)(=O)=O)cc3)cc12
inactive: UACC-257 > 100 µM | SF-539 > 100 µM | RXF 393 > 100 µM | 786-0 > 100 µM | KM12 > 100 µM | NCI-H522 > 100 µM | RPMI-8226 > 100 µM | UO-31 > 100 µM | SF-295 > 100 µM | NCI-H226 > 100 µM | CCRF-CEM > 100 µM | HT-29 > 100 µM | SK-OV-3 > 100 µM | OVCAR-3 > 100 µM | U-251 > 100 µM | M14 > 100 µM | SNB-19 > 100 µM | HCT-116 > 100 µM | HCC 2998 > 100 µM | SNB-75 > 100 µM

Cn1c(=O)n2n(c1=O)Cc1cccc3cccc(c13)C2
inactive: UACC-257 > 100 µM | SF-539 > 100 µM | RXF 393 53.6 µM | 786-0 > 100 µM | KM12 > 100 µM | NCI-H522 > 100 µM | RPMI-8226 > 100 µM | UO-31 63.8 µM | SF-295 > 100 µM | NCI-H226 > 100 µM | CCRF-CEM > 100 µM | HT-29 > 100 µM | SK-OV-3 > 100 µM | OVCAR-3 > 100 µM | U-251 > 100 µM | M14 > 100 µM | SNB-19 > 100 µM | HCT-116 > 100 µM | HCC 2998 > 100 µM | SNB-75 > 100 µM

COc1ccc2c(c1)C(=O)C1(C2)[C@H](c2ccccc2)C2C(=O)c3cc(OC)ccc3C2[C@H]1c1ccccc1 (stereo not given in full)
inactive: UACC-257 > 100 µM | SF-539 > 100 µM | RXF 393 > 100 µM | 786-0 > 100 µM | KM12 > 100 µM | NCI-H522 > 100 µM | RPMI-8226 43.7 µM | UO-31 > 100 µM | SF-295 > 100 µM | NCI-H226 > 100 µM | CCRF-CEM 73.5 µM | HT-29 > 100 µM | SK-OV-3 > 100 µM | OVCAR-3 > 100 µM | U-251 > 100 µM | M14 > 100 µM | SNB-19 > 100 µM | HCT-116 > 100 µM | HCC 2998 > 100 µM | SNB-75 92.3 µM

Clc1ccc2c(NCCNc3ccnc4cc(Cl)ccc34)ccnc2c1
inactive: UACC-257 17.9 µM | SF-539 12 µM | RXF 393 20 µM | 786-0 14.3 µM | KM12 18.2 µM | NCI-H522 18.3 µM | RPMI-8226 20.6 µM | UO-31 15.7 µM | SF-295 13.3 µM | NCI-H226 37.9 µM | CCRF-CEM 14.6 µM | HT-29 15.3 µM | SK-OV-3 17.7 µM | OVCAR-3 15.1 µM | U-251 17.9 µM | M14 16.9 µM | SNB-19 20.1 µM | HCT-116 16.9 µM | HCC 2998 15.2 µM | SNB-75 21.5 µM

CC(C)C(C(=O)N1CCC[C@@H]1C(=O)OCc1ccccc1)N(C)C(=O)C(C(C)C)N(C)C(=O)[C@H](Cc1ccccc1)N(C)C(=O)[C@H](NC(=O)OC(C)(C)C)C(C)C (stereo not given in full) (Boc-[dV][NMeF][ξNMeV][ξNMeV][dP]-OBn)
inactive: UACC-257 13.6 µM | SF-539 > 100 µM | RXF 393 > 100 µM | 786-0 > 100 µM | KM12 > 80.7 µM | NCI-H522 > 100 µM | RPMI-8226 10.9 µM | UO-31 > 29.2 µM | SF-295 9.04 µM | NCI-H226 > 100 µM | CCRF-CEM > 54.5 µM | HT-29 > 45.4 µM | SK-OV-3 > 100 µM | OVCAR-3 > 56.6 µM | U-251 > 100 µM | M14 > 100 µM | SNB-19 > 100 µM | HCT-116 14.5 µM | HCC 2998 > 100 µM | SNB-75 9.91 µM
